Laboratory results as given in patent US6914045B2, “Glycopeptide antibiotics” (Wyeth Holdings Corporation, priority 2001, dated 2005).
≈ marks a conversion by molar mass, not a printed value.

Tests used:
Assay in all cases: in vitro antibacterial evaluation, MIC by broth dilution
Type in all cases: cell-based
[1] = test system: Enterococcus sp.; details: broth dilution, 18 hours at 35° C.
Procedure, shortened: (§1)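 Inoculum 5×10^5 CFU/mL; concentrations 64 to 0.06 μg/mL; MIC defined as lowest inhibitory level. Conducted by broth dilution under NCCLS guidelines.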

[2] = test system: Escherichia coli; details: 18 hours at 35° C.
Procedure, shortened: as §1

[3] = test system: Staphylococcus sp.; details: broth dilution, 18 hours at 35° C.
Procedure, shortened: as §1

[4] = test system: Streptococcus sp.; details: broth dilution, 18 hours at 35° C.
Procedure, shortened: as §1

MIC Enterococcus avium (GC 4558) ([1]; Enterococcus avium (GC 4558)): 16 µg/mL (≈ 11.5 µM)
MIC Enterococcus faecalis (ATCC 29212) ([1]; Enterococcus faecalis (ATCC 29212)): 8 µg/mL (≈ 5.76 µM)
MIC Enterococcus faecalis (GC 2242) ([1]; Enterococcus faecalis (GC 2242)): 8 µg/mL (≈ 5.76 µM)
MIC Enterococcus faecalis (GC 2691) ([1]; Enterococcus faecalis (GC 2691)): 8 µg/mL (≈ 5.76 µM)
MIC Enterococcus faecalis (GC 3059) ([1]; Enterococcus faecalis (GC 3059)): 16 µg/mL (≈ 11.5 µM)
MIC Enterococcus faecalis (GC 4552) ([1]; Enterococcus faecalis (GC 4552)): 8 µg/mL (≈ 5.76 µM)
MIC Enterococcus faecalis (GC 4553) ([1]; Enterococcus faecalis (GC 4553)): 16 µg/mL (≈ 11.5 µM)
MIC Enterococcus faecalis (GC 4554) ([1]; Enterococcus faecalis (GC 4554)): 8 µg/mL (≈ 5.76 µM)
MIC Enterococcus faecalis (GC 6189) ([1]; Enterococcus faecalis (GC 6189)): 8 µg/mL (≈ 5.76 µM)
MIC Enterococcus faecium (GC 2243) ([1]; Enterococcus faecium (GC 2243)): 8 µg/mL (≈ 5.76 µM)
MIC Enterococcus faecium (GC 4556) ([1]; Enterococcus faecium (GC 4556)): 8 µg/mL (≈ 5.76 µM)
MIC Enterococcus faecium (GC 4557) ([1]; Enterococcus faecium (GC 4557)): 4 µg/mL (≈ 2.88 µM)
MIC Enterococcus faecalis (ATCC 29212) ([1]; strain ATCC 29212): 8 µg/mL (≈ 5.76 µM)
MIC Enterococcus faecalis (GC 2242) ([1]; strain GC 2242): 8 µg/mL (≈ 5.76 µM)
MIC Enterococcus faecium (GC 2243) ([1]; strain GC 2243): 8 µg/mL (≈ 5.76 µM)
MIC Enterococcus faecalis (GC 2691) ([1]; strain GC 2691): 8 µg/mL (≈ 5.76 µM)
MIC Enterococcus faecalis (GC 3059) ([1]; strain GC 3059): 16 µg/mL (≈ 11.5 µM)
MIC Enterococcus faecalis (GC 4552) ([1]; strain GC 4552): 8 µg/mL (≈ 5.76 µM)
MIC Enterococcus faecalis (GC 4553) ([1]; strain GC 4553): 16 µg/mL (≈ 11.5 µM)
MIC Enterococcus faecalis (GC 4554) ([1]; strain GC 4554): 8 µg/mL (≈ 5.76 µM)
MIC Enterococcus faecium (GC 4556) ([1]; strain GC 4556): 8 µg/mL (≈ 5.76 µM)
MIC Enterococcus faecium (GC 4557) ([1]; strain GC 4557): 4 µg/mL (≈ 2.88 µM)
MIC Enterococcus avium (GC 4558) ([1]; strain GC 4558): 16 µg/mL (≈ 11.5 µM)
MIC Enterococcus faecalis (GC 6189) ([1]; strain GC 6189): 8 µg/mL (≈ 5.76 µM)
MIC Escherichia coli (ATCC 25922) ([2]; strain ATCC 25922): >64 µg/mL
MIC Escherichia coli (GC 4559) ([2]; strain GC 4559): 32 µg/mL (≈ 23 µM)
MIC Escherichia coli (GC 4560) ([2]; strain GC 4560): 1 µg/mL (≈ 0.72 µM)
MIC Staphylococcus aureus (ATCC 29213) [3]: 4 µg/mL (≈ 2.88 µM)
MIC Staphylococcus aureus (GC 1131) [3]: 2 µg/mL (≈ 1.44 µM)
MIC Staphylococcus aureus (GC 3051) [3]: 2 µg/mL (≈ 1.44 µM)
MIC Staphylococcus aureus (GC 3053) [3]: 4 µg/mL (≈ 2.88 µM)
MIC Staphylococcus aureus (GC 4541) [3]: 2 µg/mL (≈ 1.44 µM)
MIC Staphylococcus aureus (GC 4542) [3]: 2 µg/mL (≈ 1.44 µM)
MIC Staphylococcus aureus (GC 4544) [3]: 4 µg/mL (≈ 2.88 µM)
MIC Staphylococcus aureus (GC 4545) [3]: 2 µg/mL (≈ 1.44 µM)
MIC Staphylococcus aureus (GC 1131) ([3]; inoculum 5×10^5 CFU/mL, strain GC 1131): 2 µg/mL (≈ 1.44 µM)
MIC Staphylococcus aureus (ATCC 29213) ([3]; strain ATCC 29213): 4 µg/mL (≈ 2.88 µM)
MIC Staphylococcus aureus (GC 3051) ([3]; strain GC 3051): 2 µg/mL (≈ 1.44 µM)
MIC Staphylococcus aureus (GC 3053) ([3]; strain GC 3053): 4 µg/mL (≈ 2.88 µM)
MIC Staphylococcus aureus (GC 4541) ([3]; strain GC 4541): 2 µg/mL (≈ 1.44 µM)
MIC Staphylococcus aureus (GC 4542) ([3]; strain GC 4542): 2 µg/mL (≈ 1.44 µM)
MIC Staphylococcus aureus-SMITH (GC 4543) ([3]; strain GC 4543): 2 µg/mL (≈ 1.44 µM)
MIC Staphylococcus aureus (GC 4544) ([3]; strain GC 4544): 4 µg/mL (≈ 2.88 µM)
MIC Staphylococcus aureus (GC 4545) ([3]; strain GC 4545): 2 µg/mL (≈ 1.44 µM)
MIC Coagulase Negative Staphylococcus (GC 4547) ([3]; strain GC 4547): 2 µg/mL (≈ 1.44 µM)
MIC Coagulase Negative Staphylococcus (GC 4548) ([3]; strain GC 4548): 1 µg/mL (≈ 0.72 µM)
MIC Coagulase Negative Staphylococcus (GC 4549) ([3]; strain GC 4549): 1 µg/mL (≈ 0.72 µM)
MIC Coagulase Negative Staphylococcus (GC 4551) ([3]; strain GC 4551): 2 µg/mL (≈ 1.44 µM)
MIC Coagulase Negative Staphylococcus (GC 6257) ([3]; strain GC 6257): 1 µg/mL (≈ 0.72 µM)
MIC Staphylococcus aureus-SMITH (GC 4543) ([3]; strain SMITH GC 4543): 2 µg/mL (≈ 1.44 µM)
MIC Streptococcus agalactiae (GC 4564) ([4]; Streptococcus agalactiae (GC 4564)): 0.5 µg/mL (≈ 0.36 µM)
MIC Streptococcus pneumoniae (ATCC 6301) ([4]; Streptococcus pneumoniae (ATCC 6301)): 0.25 µg/mL (≈ 0.18 µM)
MIC Streptococcus pneumoniae (GC 1894) ([4]; Streptococcus pneumoniae (GC 1894)): 0.12 µg/mL (≈ 0.0864 µM)
MIC Streptococcus pneumoniae (GC 4565) ([4]; Streptococcus pneumoniae (GC 4565)): 0.25 µg/mL (≈ 0.18 µM)
MIC Streptococcus pyogenes (GC 4563) ([4]; Streptococcus pyogenes (GC 4563)): 0.5 µg/mL (≈ 0.36 µM)
MIC Streptococcus pneumoniae (ATCC 6301) ([4]; strain ATCC 6301): 0.25 µg/mL (≈ 0.18 µM)
MIC Streptococcus pneumoniae (GC 1894) ([4]; strain GC 1894): 0.12 µg/mL (≈ 0.0864 µM)
MIC Streptococcus pyogenes (GC 4563) ([4]; strain GC 4563): 0.5 µg/mL (≈ 0.36 µM)
MIC Streptococcus agalactiae (GC 4564) ([4]; strain GC 4564): 0.5 µg/mL (≈ 0.36 µM)
MIC Streptococcus pneumoniae (GC 4565) ([4]; strain GC 4565): 0.25 µg/mL (≈ 0.18 µM)
Structure (SMILES): CC(c1ccccc1)C1NC(=O)CNC(=O)C(CO)NC(=O)C(C(O)C2CNC(=N)N2C2OC(CO)C(O)C(O)C2O)NC(=O)C(C(O)C2CNC(=N)N2)NC(=O)C(Cc2ccc(OC3OC(CO)C(OC4OC5COC(c6cccs6)OC5C(O)C4O)C(O)C3O)cc2)NC1=O (stereo not shown) [Example 132]
MIC Staphylococcus haemolyticus (GC 4546) ([3]; strain GC 4546): 1 µg/mL (≈ 0.72 µM)
